Results reported in patent publication US7582638B2, “Pyrazole-isoquinoline urea derivatives as p38 kinase inhibitors” (Eli Lilly and Company, priority 2005, dated 2009).

How the values were obtained:
pMAPKAPK2 = assay: Inhibition of p-MAPKAPK2 in vitro (anisomycin-stimulated RAW 264.7 cells, ELISA); assay type: cell-based, murine; settings: Mus musculus, RAW264.7, 2 hours compound, anisomicin 100 ug/ml 30 minutes, read-out: IC50, inhibition of pMAPKAPK2 enzyme production
Description: RAW 264.7 cells (a murine monocytic/macrophage line ATCC) are seeded at a density of 50,000 cells/well in 96-well plates with RPMI-1640 medium plus 10% fetal bovine serum (FBS) and allowed to settle and adhere to the bottom of the well for 48 hours. After reaching confluence, cells are treated for 2 hours with 10 serial dilutions of different compounds. A control compound is always included. After 2 hours, anisomicin (100 ug/ml) is added and cells are incubated for 30 minutes at 37° C. under a 5% CO2 atmosphere. Then, cells are fixed and treated with hydrogen peroxide in order to remove endogenous peroxidase. Finally, plates are blocked with FBS, washed, and an ELISA assay is carried out by using an antiphospho-MAPKAPK2 (Thr 334, Cell Signalling, Cat # 3041) antibody and ahP-Conjugated Secondary Antibody. This reaction is detected by using FEMTO (Pierce) which is an enhanced chemiluminiscent substrate ahP that results in rapid kinetic light output and high signal intensity. The compound exemplified in Example 12 is tested essentially as described above and is found to inhibit the pMAPKAPK2 enzyme production with an IC50 of 7 nM.

p38 kinase enzyme = assay: Inhibition of p38 kinase (33P-ATP, EGF peptide 661-681 substrate); assay type: biochemical; settings: 40 minutes at 30° C.
Description: The kinase buffer solution is prepared by combining 2.5 mL 1M Tris-HCl (pH 7.5), 0.1 mL 1 M dithiothreitol, 1.0 mL 1 M magnesium chloride, and 300 μL 1% Triton X-100 and diluting to 100 mL with water. 84 mL of this kinase buffer solution is combined with 16 mL DMSO to prepare the 16% DMSO solution.
The 200 μM ATP solution is prepared by adding 102.6 μL 10 mM aqueous ATP, 25 μL ^33P-ATP, and 163.5 μL of 4 mM aqueous Epidermal Growth Factor Peptide 661-681 (Biomol, Catalog #P-121) in 5 mL kinase buffer solution.
The p38 kinase enzyme solution is prepared by dissolving 9.5 μL concentrated enzyme solution (250 ng p38 enzyme/μL kinase buffer solution) in 1536 μL kinase buffer solution.
An 80 μM solution of each test compound and control compound are prepared by dissolving 2 μL of a 10 mM stock solution of the respective compounds in dimethylsulfoxide in 248 μL of the 16% DMSO solution in a Costar 96-well microtiter plate. […]
10 μL of serially diluted compound is placed with a Beckman Multimek 96-well automated liquid handler to the assay plate. […] The plates are allowed to sit for 30 min and counted on a PE/Wallac Microbeta Trilux scintillation counter for ^33P-isotope.
The compound exemplified in Example 12 is initially tested at 10 concentrations (20 μM-1 nM using 1:3 serial dilutions). […] IC50 values are calculated (IDBS ActivityBase software) for each compound using non-linear regression.

TNFα = assay: Inhibition of TNFα in vivo (LPS challenge, plasma TNFα ELISA); settings: female Balb/c mice, p.o., LPS 400 μg/kg IP 1 hour after compound, plasma 1.5 hours after LPS
Description: Compounds are administered p.o. (30, 10, 3 and 1 mg/kg) to female Balb/c mice (6 mice/dose). 1 hour following compound administration at 4 doses (P.O. at volume of 0.1 mL/mouse; vehicle: 1% NaCMC/0.25% Tween-80 in water); mice are given an IP-injection of LPS at 400 μg/kg. 1.5 hours after LPS challenging, mice are anesthetized with isoflurane and blood is taken via cardiac puncture. TNFa-levels in the plasma are determined using ELISA kit from R&D Systems and dose response ED50 is determined.
The compound exemplified in Example 12 is tested essentially as described above and suppressed TNFα in vivo with an TMED50 of 1.0 mg/kg. The Threshold Minimum Effective Dose (TMED) 50 is the dose at which greater than or equal to 50% inhibition was achieved and statistically different from control/placebo.

p-MAPKAPK2 = assay: Anisomycin-stimulated mice ex-vivo phospho-MAPKAPK2 inhibition assay by flow cytometry; assay type: in vivo; settings: female Balb/c mice, po, blood after 2 hours, ex vivo anisomycin 10 μg/ml, CD11b+Ly6G- cells
Description: Female Balb/c mice with 8-10 week-old age are purchased from Taconic Inc. and dosed po with 0.2 mL volume of compounds at the concentrations of 30, 10, 3, 1 mg/kg. Blood is obtained from cardiac puncture after 2 hours or other indicated time periods and collected in EDTA-containing tubes. 100 μL of blood is incubated at 37° C. for 10 minutes. Whole blood is then mixed with FITC-conjugated rat anti-mouse Ly-6G mAb (1:250) and APC-conjugated rat anti-mouse CD11b mAb (1:100) and stimulated with 10 μg/ml anisomycin. Both cell surface antigen staining and anisomycin stimulation is conducted at 37° C. for 15 min and followed up with Lyse/Fix buffer (BD Biosciences, Cat# 558049) for 10 min at room temperature. Lysed blood samples are spun down at 600×g for 8 minutes at room temperature with additional wash once by 4 mL PBS. 200 μL of diluted anti-Phospho-MAPKAPK-2 (Thr334) antibody (1:100 dilution) (Cell Signaling, Cat# 3041) and mouse BD Fc Block (1:100 dilution) (BD Biosciences, 553141) in permeabilization Medium B (Caltag, Cat# GAS002S-5) are added into blood cells and incubate at room temperature for 30 min. After the incubation, 3 mL of stain/wash buffer is added and cells are spanned down as described above with additional wash with 3 ml stain/wash buffer. […] Mean fluorescence of phosphono-MapKap-K2 staining is measured on gated CD11b+Ly6G-cells. […]

CS(=O)(=O)O.Cc1ccc(-n2nc(C3(C)CC3)cc2NC(=O)Nc2cnc(OC3CCN(C(=O)C4(C)CC4)CC3)c3ccccc23)cc1 [Example 12, 1-{1-[1-(1-Methyl-cyclopropanecarbonyl)-piperidin-4-yloxy]-isoquinolin-4-yl}-3-[5-(1-methyl-cyclopropyl)-2-p-tolyl-2H-pyrazol-3-yl]-urea mesylate]
IC50 (pMAPKAPK2): 7 nM | IC50 (p38 kinase enzyme): 34 nM | TMED50, suppression of TNFα in vivo (TNFα): 1.0 mg/kg | TMED50, inhibition of p-MAPKAPK2 synthesis (p-MAPKAPK2): 2.20 mg/kg
